Measured values from US20160355530A1, “HEPATITIS C INHIBITORS AND USES THEREOF” (AbbVie Inc., priority 2010, published 2016).
Where two headings read alike, the source gives them in different places.

Experiments:
[1] = test system: HCV 1a-H77 subgenomic replicon; experiment: microbe, parasite or virus in culture; assay type: cell-based, HCV genotype 1a; settings: Hepatitis C virus, stable replicon
[2] = test system: HCV 1b-BB7 subgenomic replicon; experiment: microbe, parasite or virus in culture; assay type: cell-based, HCV genotype 1b; settings: Hepatitis C virus, stable replicon
[3] = molecular target: T1, HCV NS5B polymerase 1b BK strain (Hepatitis C virus genotype 1b, UniProt P26663); experiment: HCV NS5B polymerase enzymatic inhibition assay, strain 1b BK; assay type: biochemical; settings: enzyme, strain 1b BK; read-out: HCV Polymerase Strain 1b BK IC50
T1 construct: six-histidine tag; made in house; host or cells: E. coli
T1 sequence (P26663 2420-2989): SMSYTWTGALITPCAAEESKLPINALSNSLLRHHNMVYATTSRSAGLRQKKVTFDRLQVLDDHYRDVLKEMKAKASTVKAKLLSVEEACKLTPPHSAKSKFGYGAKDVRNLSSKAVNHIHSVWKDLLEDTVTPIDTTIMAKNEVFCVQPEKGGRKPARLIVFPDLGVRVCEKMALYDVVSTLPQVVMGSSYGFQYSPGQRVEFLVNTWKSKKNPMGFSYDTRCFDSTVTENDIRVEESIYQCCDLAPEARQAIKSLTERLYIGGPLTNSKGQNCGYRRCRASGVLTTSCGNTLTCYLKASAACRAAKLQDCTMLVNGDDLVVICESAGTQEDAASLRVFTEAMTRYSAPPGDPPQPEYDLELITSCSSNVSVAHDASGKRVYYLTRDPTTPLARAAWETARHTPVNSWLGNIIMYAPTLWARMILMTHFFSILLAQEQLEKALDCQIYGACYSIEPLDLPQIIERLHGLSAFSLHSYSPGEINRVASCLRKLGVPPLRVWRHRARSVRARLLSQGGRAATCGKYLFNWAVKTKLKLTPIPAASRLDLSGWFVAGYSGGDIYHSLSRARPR
Description: (§1) Purified HCV NS5B polymerase enzymes were used for polymerase inhibition assays. All recombinant HCV polymerases contained the first 570 amino acids of the 591 amino acid native protein sequence and a six-histidine tag at the N-terminus or C-terminus to facilitate purification by affinity chromatography. The DNA nucleotide sequence for the HCV polymerase 1b BK strain was codon optimized for expression in E. coli. A synthetic gene was prepared from a series of overlapping oligonucleotides that were filled in using a DNA polymerase and amplified by PCR. The patient isolate HCV polymerases were cloned by RT-PCR methods using HCV RNA extracted from the serum of infected subjects obtained from ProMedDx and BioCollections (genotypes 2a, 2b, 3a, and 4a). Laboratory strains were cloned from plasmid DNA (1a-H77 or 1a-H77-C316Y) or from existing replicon cells (1b Rice). In all cases the amplified DNA was cloned into a protein expression vector (typically a pET vector from Novagen) and then multiple clones were sequenced to identify one whose NS5B sequence agreed with the population sequence. This sequence-confirmed clone was then transfected into E. coli for protein expression and purification. E. coli cultures were grown to a maximum optical density (OD) of 2-3 and then induced with 0.4 mM isopropyl beta-D-thiogalactopyranoside (IPTG) and grown for 20 hours at 20° C.
(§2) Proteins were purified using nickel affinity chromatography, and additional column steps were added including, ion exchange, size exclusion, hydrophobic ion, and poly-U affinity chromatography, as needed, depending on the sample being purified. The template RNA used in the polymerase enzymatic assay was a 2.1 kb construct that corresponds to the 3′-end of an HCV genotype 1b negative strand RNA.
(§3) The reaction was initiated by the addition of 20 μM CTP, 20 μM ATP, 0.284 μM (0.5 μCi) of 5,6-[^3H] UTP, 5 nM template RNA and 0.1 U/μL RNase inhibitor (RNasin, Promega), and allowed to proceed for three hours at 30° C. The final reaction volume was 50 μL. The reaction was terminated by the addition of 50 uL of 4 mM spermine in 10 mM Tris-HCl, pH 7.5, 1 mM EDTA. The quenched reaction was allowed to incubate for at least 15 minutes at room temperature, and then the precipitated RNA was captured by filtration through a glass fiber filter (GF/B, Millipore) in a 96 well format. The filter plate was washed five times with 200 μL of 2 mM spermine, 10 mM Tris-HCl, pH 8.0, 1 mM EDTA, and two times with ethanol. After drying thoroughly in air, 30 μL of Microscint-20 scintillation cocktail (Perkin Elmer) was added to each well, and the retained cpm were determined by scintillation counting. IC50 values were determined by nonlinear regression.
(§4) % Inhibition=100*[[I]/([I]+[IC50])] equation 1
(§5) V=kcat[S]/2(Km+[S])*(sqrt((IC50+I−E)̂2+(4*IC50*E))−(IC50+I−E)) equation 2

[4] = test system: HCV NS5B polymerase 1a-H77-C316Y; experiment: biochemical; parameters: species or system HCV genotype 1a; settings: ratio of enzyme IC50s, 1a H77-C316Y / 1a H77
Description: as §1, §2, §3, §4, §5

[5] = molecular target: T2, HCV NS5B polymerase 1a-H77-C316Y (Hepatitis C virus genotype 1a, UniProt P27958, C2736Y); experiment: biochemical; parameters: species or system HCV genotype 1a
T2 construct: six-histidine tag; made in house; host or cells: E. coli
T2 sequence (P27958 2421-2990 C2736Y): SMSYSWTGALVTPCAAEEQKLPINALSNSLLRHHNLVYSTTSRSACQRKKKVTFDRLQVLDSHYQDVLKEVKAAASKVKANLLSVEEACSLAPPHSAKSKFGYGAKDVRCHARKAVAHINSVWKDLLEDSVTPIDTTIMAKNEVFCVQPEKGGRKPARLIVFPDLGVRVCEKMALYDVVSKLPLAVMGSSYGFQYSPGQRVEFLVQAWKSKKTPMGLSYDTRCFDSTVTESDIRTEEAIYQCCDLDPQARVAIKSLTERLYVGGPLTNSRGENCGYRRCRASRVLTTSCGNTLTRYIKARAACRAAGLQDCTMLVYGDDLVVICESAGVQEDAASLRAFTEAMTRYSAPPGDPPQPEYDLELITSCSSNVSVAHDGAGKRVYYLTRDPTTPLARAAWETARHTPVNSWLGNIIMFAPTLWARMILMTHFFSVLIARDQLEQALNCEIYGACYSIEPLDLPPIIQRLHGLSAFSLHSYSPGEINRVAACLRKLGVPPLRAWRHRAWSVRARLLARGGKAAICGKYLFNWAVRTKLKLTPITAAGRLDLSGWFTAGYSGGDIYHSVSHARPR
Description: as §1, §2, §3, §4, §5

[6] = molecular target: T3, HCV NS5B polymerase 1a-H77 (Hepatitis C virus genotype 1a, UniProt P27958); experiment: biochemical; parameters: species or system HCV genotype 1a; settings: enzyme, strain 1a H77; read-out: HCV Polymerase Strain 1a H77 IC50
T3 construct: six-histidine tag; made in house; host or cells: E. coli
T3 sequence (P27958 2421-2990): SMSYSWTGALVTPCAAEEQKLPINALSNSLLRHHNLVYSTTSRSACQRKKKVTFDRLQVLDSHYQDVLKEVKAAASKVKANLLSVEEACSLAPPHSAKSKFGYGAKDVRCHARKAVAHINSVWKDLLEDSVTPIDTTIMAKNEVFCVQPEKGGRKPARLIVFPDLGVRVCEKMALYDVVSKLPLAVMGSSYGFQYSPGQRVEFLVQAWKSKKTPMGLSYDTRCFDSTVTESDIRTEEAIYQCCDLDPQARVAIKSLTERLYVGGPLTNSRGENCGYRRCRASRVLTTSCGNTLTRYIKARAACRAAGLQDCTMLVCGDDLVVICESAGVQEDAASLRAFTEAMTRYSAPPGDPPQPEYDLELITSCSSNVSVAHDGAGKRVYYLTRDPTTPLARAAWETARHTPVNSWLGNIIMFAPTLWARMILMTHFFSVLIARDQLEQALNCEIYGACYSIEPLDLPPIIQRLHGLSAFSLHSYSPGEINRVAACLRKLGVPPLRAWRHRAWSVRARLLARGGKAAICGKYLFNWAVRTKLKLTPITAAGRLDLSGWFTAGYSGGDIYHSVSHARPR
Description: as §1, §2, §3, §4, §5

[7] = 5% FBS, absence of human plasma, read-out: Stable Replicon 1a H77 5% FBS EC50
[8] = strain 1a H77, 5% FBS + 40% human plasma, read-out: 1a H77 5% FBS + 40% Human Plasma EC50
[9] = strain 1a H77, 5% FBS, no human plasma, read-out: 1a H77 5% FBS EC50
[10] = strain 1a H77, 5% FBS, read-out: 1a H77 5% FBS EC50
[11] = strain 1b BB7, 5% FBS + 40% human plasma, read-out: 1b BB7 5% FBS + 40% Human Plasma EC50
[12] = strain 1b BB7, 5% FBS, no human plasma, read-out: 1b BB7 5% FBS EC50
[13] = strain 1b BB7, 5% FBS, read-out: 1b BB7 5% FBS EC50

Row | Structure (SMILES) | EC50 [1, 7] | EC50 [1, 8] | EC50 [1, 9] | EC50 [1, 10] | EC50 [2, 11] | EC50 [2, 12] | EC50 [2, 13] | IC50 [3] | C316Y/1a Fold Resistance [4] | IC50 [5] | IC50 [6]
1 | CC(c1ccccc1)N(c1ccc2c(-c3ncc[nH]3)c(-c3ccccc3)oc2c1)S(C)(=O)=O (centres unmarked) [Example 20, N-[3-(1H-imidazol-2-yl)-2-phenyl-1-benzofuran-6-yl]-N-(1-phenylethyl)methanesulfonamide] | 1000 nM | 10000 nM | 1000 nM | 1000 nM | 7300 nM | 133 nM | 133 nM | 52 nM | 5 fold | 173 nM | 34.9 nM
2 | CS(=O)(=O)N(Cc1ccccc1)c1ccc2c(-c3ncc[nH]3)c(-c3ccccc3)oc2c1 [Example 21, N-benzyl-N-[3-(1H-imidazol-2-yl)-2-phenyl-1-benzofuran-6-yl]methanesulfonamide] | 3440 nM | – | 3440 nM | 3440 nM | 10000 nM | 593 nM | 593 nM | 99 nM | 2 fold | 90 nM | 47.6 nM
3 | CS(=O)(=O)N(Cc1sc(Br)nc1C(F)(F)F)c1ccc2c(-c3ncc[nH]3)c(-c3ccccc3)oc2c1 [Example 22, N-{[2-bromo-4-(trifluoromethyl)-1,3-thiazol-5-yl]methyl}-N-[3-(1H-imidazol-2-yl)-2-phenyl-1-benzofuran-6-yl]methanesulfonamide] | 2380 nM | – | 2380 nM | 2380 nM | – | 866 nM | 866 nM | 55 nM | 1 fold | 179 nM | 159 nM
4 | CC(C)(C)Oc1ncc(-c2ncc(CN(c3ccc4c(-c5ncc[nH]5)c(-c5ccccc5)oc4c3)S(C)(=O)=O)s2)c(OC(C)(C)C)n1 [Example 27, N-{[2-(2,4-di-tert-butoxypyrimidin-5-yl)-1,3-thiazol-5-yl]methyl}-N-[3-(1H-imidazol-2-yl)-2-phenyl-1-benzofuran-6-yl]methanesulfonamide] | 866 nM | 10000 nM | 866 nM | 866 nM | 5460 nM | 75 nM | 75 nM | 99 nM | 18 fold | 3800 nM | 214 nM
5 | CS(=O)(=O)N(Cc1cnc(-c2c[nH]c(=O)[nH]c2=O)s1)c1ccc2c(-c3ncc[nH]3)c(-c3ccccc3)oc2c1 [Example 29, N-{[2-(2,4-dioxo-1,2,3,4-tetrahydropyrimidin-5-yl)-1,3-thiazol-5-yl]methyl}-N-[3-(1H-imidazol-2-yl)-2-phenyl-1-benzofuran-6-yl]methanesulfonamide] | 1000 nM | 10000 nM | 1000 nM | 1000 nM | 9830 nM | 207 nM | 207 nM | 9 nM | 2 fold | 7 nM | 3 nM
6 | CS(=O)(=O)N(Cc1cccc(C(F)(F)F)c1)c1ccc2c(-c3ncc[nH]3)c(-c3ccccc3)oc2c1 [Example 32, N-[3-(1H-imidazol-2-yl)-2-phenyl-1-benzofuran-6-yl]-N-[3-(trifluoromethyl)benzyl]methanesulfonamide] | 2370 nM | – | 2370 nM | 2370 nM | 79600 nM | 599 nM | 599 nM | 80.1 nM | 1 fold | 147 nM | 132 nM
7 | CCOC(=O)CN(c1cc2oc(-c3ccc(F)cc3)c(-c3ncc[nH]3)c2cc1C1CC1)S(C)(=O)=O [Example 33, ethyl N-[5-cyclopropyl-2-(4-fluorophenyl)-3-(1H-imidazol-2-yl)-1-benzofuran-6-yl]-N-(methylsulfonyl)glycinate] | 163 nM | 8840 nM | 163 nM | 163 nM | 4810 nM | 200 nM | 200 nM | 152 nM | 181 fold | 1900 nM | 10.5 nM
8 | CS(=O)(=O)N(CC1CCCC1)c1cc2oc(-c3ccc(F)cc3)c(-c3ncc[nH]3)c2cc1C1CC1 [Example 34, N-(cyclopentylmethyl)-N-[5-cyclopropyl-2-(4-fluorophenyl)-3-(1H-imidazol-2-yl)-1-benzofuran-6-yl]methanesulfonamide] | 70 nM | 1290 nM | 70 nM | 70 nM | 854 nM | 65 nM | 65 nM | 22 nM | 30 fold | 149 nM | 5 nM
9 | CS(=O)(=O)N(CCc1ccccc1)c1cc2oc(-c3ccc(F)cc3)c(-c3ncc[nH]3)c2cc1C1CC1 [Example 35, N-[5-cyclopropyl-2-(4-fluorophenyl)-3-(1H-imidazol-2-yl)-1-benzofuran-6-yl]-N-(2-phenylethyl)methanesulfonamide] | 102 nM | 1580 nM | 102 nM | 102 nM | 1130 nM | 51 nM | 51 nM | 7 nM | 23 fold | 113 nM | 4.9 nM
10 | CS(=O)(=O)N(CC(N)=O)c1cc2oc(-c3ccc(F)cc3)c(-c3ncc[nH]3)c2cc1C1CC1 [Example 36, N^2-[5-cyclopropyl-2-(4-fluorophenyl)-3-(1H-imidazol-2-yl)-1-benzofuran-6-yl]-N^2-(methylsulfonyl)glycinamide] | 301 nM | 2140 nM | 301 nM | 301 nM | 1120 nM | 180 nM | 180 nM | 188 nM | 428 fold | 3400 nM | 7.9 nM
11 | CC(C)CCCN(c1cc2oc(-c3ccc(F)cc3)c(-c3ncc[nH]3)c2cc1C1CC1)S(C)(=O)=O [Example 40, N-[5-cyclopropyl-2-(4-fluorophenyl)-3-(1H-imidazol-2-yl)-1-benzofuran-6-yl]-N-(4-methylpentyl)methanesulfonamide] | 23 nM | 525 nM | 23 nM | 23 nM | 445 nM | 23 nM | 23 nM | 19 nM | 11 fold | 70 nM | 6.5 nM
12 | CS(=O)(=O)N(CCCc1ccccc1)c1cc2oc(-c3ccc(F)cc3)c(-c3ncc[nH]3)c2cc1C1CC1 [Example 41, N-[5-cyclopropyl-2-(4-fluorophenyl)-3-(1H-imidazol-2-yl)-1-benzofuran-6-yl]-N-(3-phenylpropyl)methanesulfonamide] | 73 nM | 911 nM | 73 nM | 73 nM | 364 nM | 40 nM | 40 nM | 16 nM | 12 fold | 58 nM | 5 nM
